In patent US12458688B2, “Epitopes” (Scancell Limited, priority 2018, dated 2025):

Experiments:
[1] = system: B16HHDII/iDP4 tumour cells; test: Tumour therapy, B16HHDII/iDP4 tumour in HHDII/DP4 mice; assay type: in vivo, mouse; settings: peptide with CpG/MPLA
Method: For tumour challenge experiments, mice were challenged with B16F1 cells s.c. on the right flank 3 days before primary immunisation (unless stated otherwise) and subsequently immunised as above. Tumour implants were carried out at dose of 2.5×10^4 cells/mouse for B16F1, 2.5×10^4 cells/mouse for B16F1 DR4, 4×10^5 cells/mouse for B16F1 HHDII/DP4, 5×10^5 cells/mouse for B16 HHDII/DR1, 1×10^5 cells/mouse for B16F1 HHDII/inducibleDP4, 5×10^4 cells/mouse for B16F1 inducible DR4. For studies involving depletion antibodies, 250 μg anti-mouse Ly6C antibody (clone Monts, BioXcell) was administered i.p. on days 8, 10, 12, 15, 17 and 19. 400 μg anti-mouse Ly6G antibody (clone 1A8, Biolegend) was administered i.p. on day 8 followed by 250 μg on days 11, 15 and 18. Anti-human CD4 antibody (clone OKT4, BioXcell) or anti-mouse CD8 antibody (clone 2.43, BioXcell) were administered at 500 μg dose on day 4 followed by 300 μg dose on days 8 and 11. Tumour growth was monitored twice weekly and mice were humanely euthanised once tumour reached ≥15 mm in diameter.
To provide further evidence for the role of CD4 T cell responses in tumour therapy HHDII/DP4 mice were implanted with B16HHDII/iDP4 tumour cells on day 1 and then immunised with peptides and CpG/MPLA on days 4, 8 and 11. Concurrent with peptide immunisation mice were also treated with CD4 or CD8 depleting antibody and tumour growth monitored. […] To show whether cyanate/isocyanic acid can cross cell membranes B16F1 melanoma cell line was cultured in vitro in the presence or absence of potassium cyanate which is in dynamic equilibrium with isocyanic acid. As a positive control lysates were also produced from in vitro cultured B16F1 cells and then treated with or without KCNO.

HLA-HHDII/DP4 mice = test: Ex vivo IFNγ ELISpot after peptide immunisation, HHDII/DP4 mice; assay type: in vivo, mouse; settings: for IFNγ ELISpot response: 3 immunisations with CpG/MPLA, day 21
Method: C57BL/6 mice (Charles River, UK), HLA-DR4 mice (Model #4149, Taconic, USA), HLA-A2/DR1 (HHDII/DR1, Pasteur Institute), HLA-A2.1+/+HLA-DP4+/+hCD4+/+ (HLA-HHDII/DP4) transgenic mice (EM: 02221, European Mouse Mutant Archive) described in patent WO2013/017545 A1 (EMMA repository, France) were used, aged between 8 and 12 weeks. Peptides were dissolved in PBS to 1 mg/ml and then emulsified (a series of dilutions) with CpG ODN 1826 and MPLA 6 μg/mouse of each (Invivogen, UK). Peptides (25 μg/mouse) were injected subcutaneously at the base of the tail. Mice were immunised at days 1, 7 and 14 for peptide immunisation. Spleens were removed for analysis at day 21 unless stated otherwise.
ELISpot assays were performed using murine IFNγ, IL-17 and IL-10 capture and detection reagents according to the manufacturer's instructions (Mabtech, Sweden). In brief, anti-IFNγ, IL-17 and IL-10 specific antibodies were coated onto wells of 96-well Immobilin-P plate. Synthetic peptides (at various concentrations) and 5×10^5 per well splenocytes were added to wells of the plate in quadruplicate Tumour target cells were added where relevant at 5×10^4/well in triplicate and plates incubated for 40 hrs at 37° C. After incubation, captured IFNγ, IL-10 and IL-17 were detected by biotinylated anti-IFNγ, IL-10 and IL-17 antibodies and developed with a streptavidin alkaline phosphatase and chromogenic substrate. Lipopolysaccharide (LPS; 5 μg/ml) was used as a positive control. For MHC blocking studies, anti-CD4 blocking antibody (GK1.5) or anti-CD4 blocking antibody (RPA-T4) for HHDII/DP4 mice which express human CD4 and anti-CD8 blocking antibody (2.43) from Bioxcell were used at 20 μg/ml. Spots were analysed and counted using an automated plate reader (Cellular Technologies Ltd).
Screening was performed to identify potential homocitrullinated ALDOA epitopes in transgenic HHDII/DP4 and HHDII/DR1 mice. Mice were immunised with pools of human homocitrullinated peptides. […] Each pool was administered as three immunisations containing 20 μg of each peptide and CpG/MPLA as an adjuvant. After 21 days the mice were culled and the immune responses to each peptide within the immunising pool were assessed by ex vivo ELISpot in HHDII/DP4 (FIG. 4b) and HHDII/DR1 mice (FIG. 4d). […] Our predictions therefore identified 3/5 peptides which could induce a T cell response. […] Of the responding peptides ALDOA 74-93 Hcit and 140-157 Hcit peptides are homologous in human and mice therefore these two peptides were selected for further investigation. Minimal IL-10 (FIG. 6b) or IL-17 (FIG. 6c) responses were seen to Aldolase peptides in HHDII/DP4 mice.
Using this combination of predictions, 5 CyK8 peptides containing homocitrulline were synthesised (Table 4). Screening was performed to identify potential homocitrullinated Cyk8 epitopes in transgenic HHDII/DP4. Mice were immunised with pools of human homocitrullinated peptides. […] Each pool was administered as three immunisations containing 20 μg of each peptide and CpG/MPLA as an adjuvant. After 21 days the mice were culled and the immune responses to each peptide within the immunising pool were assessed by ex vivo ELISpot in HHDII/DP4 (FIG. 10a). […] The responses to CyK8 101-120 Hcit, 112-131 Hcit, 182-201 Hcit, 371-388 Hcit and 381-399 Hcit immunisation were characterised for cross reactivity to the wt peptide sequence. […] Thus a key characteristic of immunogenic peptides is they express homocitrulline. All of these peptides (100%) were immunogenic. Thus a high predicted HLA-DP4 binding affinity (<30), the presence of homocitrulline residues in the core region, the peptide being amphipathic in nature with a predominantely spiral conformational structure upon 3D modelling, and the existence of homology between the mouse and human sequences defines immunogenicity. When this model was applied retrospectively to include the vimentin and ALDOA peptides 8/9 (88%) were correctly predicted. […]

HLA-DP4 (human) [2] = test: DP4 competition ELISA; competitor biotinylated Hep B peptide; 10 ug unlabelled against 10 ug biotinylated Hep B
HLA-DP4 (human) [3] = target: HLA-DP4 (human)
[4] = splenocytes after 7 days culture

Chain of HLA-DP4 (human) (P20036 29-260, chain 1 of 2): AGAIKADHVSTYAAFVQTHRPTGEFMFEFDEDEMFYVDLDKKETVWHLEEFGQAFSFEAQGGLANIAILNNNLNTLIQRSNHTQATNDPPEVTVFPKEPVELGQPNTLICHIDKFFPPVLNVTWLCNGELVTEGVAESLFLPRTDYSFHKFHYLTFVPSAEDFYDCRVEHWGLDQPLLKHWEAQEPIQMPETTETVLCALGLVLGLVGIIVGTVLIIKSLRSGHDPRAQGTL
Chain of HLA-DP4 (human) (P04440 30-258, chain 2 of 2, further chain): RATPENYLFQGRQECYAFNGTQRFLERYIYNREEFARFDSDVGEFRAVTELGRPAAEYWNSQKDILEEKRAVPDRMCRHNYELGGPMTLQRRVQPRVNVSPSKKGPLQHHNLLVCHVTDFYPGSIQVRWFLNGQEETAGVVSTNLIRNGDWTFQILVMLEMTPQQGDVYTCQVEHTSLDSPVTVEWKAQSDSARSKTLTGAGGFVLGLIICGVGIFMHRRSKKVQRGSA

Substance | tumour growth / survival vs control [1] | cross reactivity of Hcit response to wt peptide (HLA-HHDII/DP4 mice) | IFNγ ELISpot response (HLA-HHDII/DP4 mice) | IFNγ response in presence of CD4 blocking antibody (HLA-HHDII/DP4 mice; [4]) | IFNγ response in presence of CD8 blocking antibody (HLA-HHDII/DP4 mice; [4]) | % inhibition (HLA-DP4 (human) [2]) | OD (HLA-DP4 (human) [3])
RNELESYAYSL-Hcit-NQIGD-Hcit- [BiP 562-579 Hcit] | Significant prevention of tumour growth | significantly higher | stimulation of IFNγ responses | loss of response |  |  | 
FSLADAINTEF-Hcit-NTRTNE-Hcit-VELQ [Vimentin 86-108 Hcit] | Significant prevention of tumour growth |  | stimulation of IFNγ responses | loss of response |  |  | 
A-Hcit-FINYV-Hcit-NCFRMTDQEAIQDL [NPM 266-287 Hcit] | Significant prevention of tumour growth | significantly higher | stimulation of IFNγ responses |  | lost |  | 
GSHAGN-Hcit-LAMQEFMILPVGAA [Alpha enolase 156-176 Hcit] | Significant prevention of tumour growth |  | stimulation of IFNγ responses | lost |  |  | 
Hep B 181-192 peptide (unlabelled) |  |  |  |  |  | 47% | 
Biotinylated Hep B 181-192 peptide |  |  |  |  |  |  | 0.85 OD (450 nm)
